What all share (assay): 3D hyaluronan-based hydrogel construct drug screen, MTS assay
(In general: Tetrazolium assays rely on reduction of a dye to a coloured formazan, in cell work by metabolically active cells.)

One assay deals with HCT116 cells. The settings on record: Homo sapiens, HCT-116, 3D, read-out: percent relative cell viability (MTS, relative to control). How it is done:
Polydimethylsiloxane, or PDMS, was used to coat the bottom of the wells. Cells were embedded within the hyaluronan-based hydrogel and were given 5 days to acclimate to their three-dimensional environment and on day 5 were administered different anticancer drug solutions (FIG. 7, panel A). […], Dabrafenib had greater efficacy in targeting the HCT116 and SW480 cell lines, which had relative cellular viability values of 38% and 43%, as opposed to the HT29 and CACO2 cell lines, which had higher cell viability values of 93% and 75%. […]
(§1) Well Coating with PDMS and Cell Isolation: Polydimethylsiloxane, or PDMS, (DOW Corning, North Carolina, USA) was used at a 1:10 curing agent ratio to coat the bottom of the 96-well plates and the plates were then placed in a 80° C. oven for at least one hour. Cells were passaged in the same methods previously mentioned (A) with the desire to place 10 μL 3D hyaluronan-based hydrogel constructs containing 100,000 cells each ([…]) into the wells of a 96-wells plate for all four colorectal cancer cell types. Depending on the cell count, a desired number of cells were isolated in new 15 mL centrifuge tubes as cell-media solution and underwent centrifugation.
(§2) Hydrogel Components of the Single-Cell Type Constructs: The hyaluronic acid-based hydrogel (ESI BIO, California, USA) was produced using a mixture of three components: Heprasil, Gelin-S, and Extralink PEGDA 2-ARM Acrylate crosslinker. These components were mixed in a 2:2:1 ratio by volume. 0.1% Irgacure photoinitiator (Sigma-Aldrich, Missouri, USA) was added to each of the three components prior to their mixture and the three components were placed in a 37° C. incubator for a ˜30 minutes to solubilize.
(§3) Forming Organoid Constructs: Once solubilized, the media was aspirated from the 15 mL centrifuge tube (post-centrifugation) and the cells were isolated as a pellet. The hydrogel components were added directly into the centrifuge tube containing the cells and the cells were carefully resuspended in the mixture. 10 μL of the gel-cell solution was placed in the center of the wells on the PDMS coating. This was continued for all wells containing cells and was repeated for each cell type. After this point, the gel can be exposed to UV light from a BlueWave 200 spot light (Dymax, Connecticut, USA) to solidify the hydrogel, or one can wait ˜30 minutes for the gel to form on its own. DMEM-10 media was then placed in the wells and the constructs were incubated for 5 days.
(§4) Anticancer Drug Screening and Cell Viability: The same five anticancer drugs were added on Day 5 and the cell viability assay occurred on Day 7.

For a further assay, the system named is HT29 cells. The class given is cell-based. The settings on record: Homo sapiens. The procedure: (§5) Polydimethylsiloxane, or PDMS, was used to coat the bottom of the wells. Cells were embedded within the hyaluronan-based hydrogel and were given 5 days to acclimate to their three-dimensional environment and on day 5 were administered different anticancer drug solutions (FIG. 7, panel A). […] At 100 μM concentrations of Regorafenib and Sorafenib, cellular viability remained below 25% that of the control for all four of the colorectal cancer cell lines utilized. The only exception to this was when 100 μM Regorafenib was administered to CACO2 cells and the percent relative cell viability rose to approximately 48%. […] At a 100 μM concentration, Dabrafenib had greater efficacy in targeting the HCT116 and SW480 cell lines, which had relative cellular viability values of 38% and 43%, as opposed to the HT29 and CACO2 cell lines, which had higher cell viability values of 93% and 75%. 100 μM concentrations of Trametinib produced relative cellular viability results that fell within a narrow range for the four colorectal cell lines with values of 54% for SW480 cells and 74% for HT29 cells.
as §1, §2, §3, §4

The next assay concerns SW480 cells. The class given is cell-based. Particulars: Homo sapiens. How it is done:
as §5, §1, §2, §3, §4

For the next assay, the system named is CACO2 cells. The settings on record: Homo sapiens, Caco-2, 3D, read-out: percent relative cell viability (MTS, relative to control). How it is done: as §5, §1, §2
Forming Organoid Constructs: Once solubilized, the media was aspirated from the 15 mL centrifuge tube (post-centrifugation) and the cells were isolated as a pellet. The hydrogel components were added directly into the centrifuge tube containing the cells and the cells were carefully resuspended in the mixture. 10 μL of the gel-cell solution was placed in the center of the wells on the PDMS coating. This was continued for all wells containing cells and was repeated for each cell type. […]

Each structure is given as a SMILES string. Where only a bound is given, the exact number is not on record here.

Broadly, the viability is a per cent measure of how many cells are alive, often set against a control.

In the case of `O=c1[nH]cc(F)c(=O)[nH]1` [5-FU, 5-Fluorouracil], the viability at 10000 µM amounted to 18% in the assay on HCT116 cells (10 mM, HCT116); 50% in the assay with HT29 cells (HT-29, 10 mM, HT29, read-out: percent relative cell viability (MTS, relative to control)); 9% in the assay on SW480 cells (10 mM, SW480, read-out: percent relative cell viability (MTS, relative to control)); 22% in the assay on CACO2 cells (10 mM, CACO2). For the same compound, the viability at 100000 µM with HCT116 cells (100 mM, HCT116) worked out at 81%; in the assay on SW480 cells (100 mM, SW480, read-out: percent relative cell viability (MTS, relative to control)) it was 48%.

Take `CNC(=O)c1cc(Oc2ccc(NC(=O)Nc3ccc(Cl)c(C(F)(F)F)c3)c(F)c2)ccn1` [Regorafenib]: the viability at 100 µM in the assay with HCT116 cells (100 μM, HCT116, drug day 5, assay day 7) is less than 25%; in the assay with HT29 cells (HT-29, 100 μM, HT29, drug day 5, assay day 7, read-out: percent relative cell viability (MTS, relative to control)), less than 25%; in the assay with SW480 cells (100 μM, SW480, drug day 5, assay day 7, read-out: percent relative cell viability (MTS, relative to control)) it was less than 25%; in the assay with CACO2 cells (100 μM, CACO2, drug day 5, assay day 7), roughly 48%.

The values above are taken from US20190187129A1, “CANCER MODELING PLATFORMS AND METHODS OF USING THE SAME” (Wake Forest University Health Sciences, priority 2016, published 2019).
